Measured values taken from patent US20230310428A1, “EGFR INHIBITOR AND PREPARATION METHOD AND USE THEREOF” (HONGYUN BIOTECH CO., LTD., priority 2020, published 2023).

Columns and labels:
Assay in all cases: Growth inhibitory activity of compounds on BaF3 cell lines stably transfected with kinase (MTS, 48 h)
Format in all cases: cell-based
[1] = biological target: T1, various mutants of kinase EGFR (BaF3 cell lines stably transfected with kinase) (Homo sapiens, UniProt P00533); details: BaF3 cell line stably transfected with EGFR Δ19Del, read-out: Δ19Del growth inhibitory activity IC50
T1 construct: other: BaF3 cells stably transfected with EGFR Δ19Del; MTS, 48 h; other: BaF3 cell line stably transfected with EGFR Δ19Del
T1 sequence (P00533 with tags, fused parts or gaps DEL746-750): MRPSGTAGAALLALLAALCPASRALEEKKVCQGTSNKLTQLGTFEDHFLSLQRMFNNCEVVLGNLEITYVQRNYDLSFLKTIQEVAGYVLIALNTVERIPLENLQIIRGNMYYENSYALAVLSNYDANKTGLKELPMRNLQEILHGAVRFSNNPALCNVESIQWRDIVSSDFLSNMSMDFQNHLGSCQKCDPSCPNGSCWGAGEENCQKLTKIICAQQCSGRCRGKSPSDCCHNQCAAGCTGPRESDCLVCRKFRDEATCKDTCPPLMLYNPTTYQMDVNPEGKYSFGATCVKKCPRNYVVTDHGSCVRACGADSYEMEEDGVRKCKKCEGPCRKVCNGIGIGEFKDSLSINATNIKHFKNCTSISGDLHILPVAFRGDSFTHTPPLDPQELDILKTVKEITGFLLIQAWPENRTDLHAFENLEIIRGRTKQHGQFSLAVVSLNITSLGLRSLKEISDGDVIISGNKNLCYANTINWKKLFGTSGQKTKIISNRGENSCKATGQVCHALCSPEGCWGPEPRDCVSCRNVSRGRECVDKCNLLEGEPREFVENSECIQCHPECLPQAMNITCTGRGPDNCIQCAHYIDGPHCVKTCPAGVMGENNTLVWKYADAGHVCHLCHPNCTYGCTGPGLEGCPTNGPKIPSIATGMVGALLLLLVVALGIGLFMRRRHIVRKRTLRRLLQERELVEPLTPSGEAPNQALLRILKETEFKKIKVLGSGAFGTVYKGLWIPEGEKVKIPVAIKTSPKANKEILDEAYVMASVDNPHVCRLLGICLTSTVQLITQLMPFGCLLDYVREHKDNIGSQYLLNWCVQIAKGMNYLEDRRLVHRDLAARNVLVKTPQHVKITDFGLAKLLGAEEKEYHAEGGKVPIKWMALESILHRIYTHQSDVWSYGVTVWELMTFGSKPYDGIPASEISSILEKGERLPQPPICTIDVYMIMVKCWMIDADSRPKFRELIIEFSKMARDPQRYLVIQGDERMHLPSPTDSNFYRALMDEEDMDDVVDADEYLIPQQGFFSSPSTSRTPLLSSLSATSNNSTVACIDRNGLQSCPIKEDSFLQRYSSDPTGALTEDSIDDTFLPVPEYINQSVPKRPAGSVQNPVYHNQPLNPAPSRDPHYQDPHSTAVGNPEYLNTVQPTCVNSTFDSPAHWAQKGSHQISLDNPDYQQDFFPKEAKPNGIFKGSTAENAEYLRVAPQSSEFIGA
In short: (§1)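 Growth is measured by MTS reduction (OD 490 nm) after 48 h compound exposure at up to 10 µM in 8 steps of 1/3. Inhibition is calculated against a 0.1% DMSO control and cell-free blank, and IC50 is derived from it.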

[2] = biological target: T2, various mutants of kinase EGFR (BaF3 cell lines stably transfected with kinase) (Homo sapiens, UniProt P00533, C797S/L858R/T790M); details: BaF3 cell line stably transfected with EGFR L858R/T790M/C797S, read-out: L858R/T790M/ C797S growth inhibitory activity IC50
T2 construct: expressed in transfected cells; host or cells: BaF3
In short: as §1

[3] = biological target: T3, various mutants of kinase EGFR (BaF3 cell lines stably transfected with kinase) (Homo sapiens, UniProt P00533, L858R); details: BaF3 cell line stably transfected with EGFR L858R, read-out: L858R growth inhibitory activity IC50
T3 construct: expressed in transfected cells; host or cells: BaF3
T3 sequence (P00533 25-1210 L858R): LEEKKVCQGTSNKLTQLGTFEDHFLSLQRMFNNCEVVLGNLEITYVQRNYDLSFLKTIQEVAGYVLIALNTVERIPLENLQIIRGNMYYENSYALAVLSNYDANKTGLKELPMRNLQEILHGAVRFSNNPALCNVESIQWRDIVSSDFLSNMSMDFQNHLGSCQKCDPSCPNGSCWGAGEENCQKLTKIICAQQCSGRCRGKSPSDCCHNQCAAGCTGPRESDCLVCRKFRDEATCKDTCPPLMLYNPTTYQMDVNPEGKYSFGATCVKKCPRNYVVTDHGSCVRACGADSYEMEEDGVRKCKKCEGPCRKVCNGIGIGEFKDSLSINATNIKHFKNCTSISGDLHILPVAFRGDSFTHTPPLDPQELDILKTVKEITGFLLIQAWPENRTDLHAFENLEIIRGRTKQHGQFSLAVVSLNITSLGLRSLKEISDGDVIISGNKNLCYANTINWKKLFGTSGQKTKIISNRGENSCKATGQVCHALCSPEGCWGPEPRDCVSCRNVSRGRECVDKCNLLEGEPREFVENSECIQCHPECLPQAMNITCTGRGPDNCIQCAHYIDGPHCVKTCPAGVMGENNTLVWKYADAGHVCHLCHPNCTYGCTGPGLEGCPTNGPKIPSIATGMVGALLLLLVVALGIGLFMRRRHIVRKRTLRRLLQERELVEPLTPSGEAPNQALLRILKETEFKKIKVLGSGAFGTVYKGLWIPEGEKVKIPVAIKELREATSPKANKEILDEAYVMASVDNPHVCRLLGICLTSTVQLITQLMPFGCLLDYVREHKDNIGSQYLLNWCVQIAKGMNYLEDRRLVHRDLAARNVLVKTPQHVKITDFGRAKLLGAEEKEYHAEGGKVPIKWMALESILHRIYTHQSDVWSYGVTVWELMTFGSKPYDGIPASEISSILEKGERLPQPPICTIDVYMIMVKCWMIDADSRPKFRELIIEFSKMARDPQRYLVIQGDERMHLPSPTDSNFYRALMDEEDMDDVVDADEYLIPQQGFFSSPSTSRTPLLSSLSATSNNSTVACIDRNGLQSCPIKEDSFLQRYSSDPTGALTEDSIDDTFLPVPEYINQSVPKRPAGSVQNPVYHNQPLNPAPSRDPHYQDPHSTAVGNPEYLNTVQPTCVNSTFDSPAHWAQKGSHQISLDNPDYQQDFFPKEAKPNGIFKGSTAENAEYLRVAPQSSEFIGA
In short: as §1

[4] = biological target: T4, various mutants of kinase EGFR (BaF3 cell lines stably transfected with kinase) (Homo sapiens, UniProt P00533, L858R/T790M); details: BaF3 cell line stably transfected with EGFR L858R/T790M, read-out: L858R/ T790M growth inhibitory activity IC50
T4 construct: expressed in transfected cells; host or cells: BaF3
In short: as §1

[5] = biological target: T5, various mutants of kinase EGFR (BaF3 cell lines stably transfected with kinase) (Homo sapiens, UniProt P00533, T790M/C797S, form not given); details: BaF3 cell line stably transfected with EGFR Δ19Del/T790M/C797S, read-out: Δ19Del/T790M/ C797S growth inhibitory activity IC50
T5 construct: other: BaF3 cells stably transfected with EGFR Δ19Del/T790M/C797S; MTS, 48; other: BaF3 cell line stably transfected with EGFR Δ19Del/T790M/C7
T5 sequence (P00533 with tags, fused parts or gaps DEL746-750/T790M/C797S, form open): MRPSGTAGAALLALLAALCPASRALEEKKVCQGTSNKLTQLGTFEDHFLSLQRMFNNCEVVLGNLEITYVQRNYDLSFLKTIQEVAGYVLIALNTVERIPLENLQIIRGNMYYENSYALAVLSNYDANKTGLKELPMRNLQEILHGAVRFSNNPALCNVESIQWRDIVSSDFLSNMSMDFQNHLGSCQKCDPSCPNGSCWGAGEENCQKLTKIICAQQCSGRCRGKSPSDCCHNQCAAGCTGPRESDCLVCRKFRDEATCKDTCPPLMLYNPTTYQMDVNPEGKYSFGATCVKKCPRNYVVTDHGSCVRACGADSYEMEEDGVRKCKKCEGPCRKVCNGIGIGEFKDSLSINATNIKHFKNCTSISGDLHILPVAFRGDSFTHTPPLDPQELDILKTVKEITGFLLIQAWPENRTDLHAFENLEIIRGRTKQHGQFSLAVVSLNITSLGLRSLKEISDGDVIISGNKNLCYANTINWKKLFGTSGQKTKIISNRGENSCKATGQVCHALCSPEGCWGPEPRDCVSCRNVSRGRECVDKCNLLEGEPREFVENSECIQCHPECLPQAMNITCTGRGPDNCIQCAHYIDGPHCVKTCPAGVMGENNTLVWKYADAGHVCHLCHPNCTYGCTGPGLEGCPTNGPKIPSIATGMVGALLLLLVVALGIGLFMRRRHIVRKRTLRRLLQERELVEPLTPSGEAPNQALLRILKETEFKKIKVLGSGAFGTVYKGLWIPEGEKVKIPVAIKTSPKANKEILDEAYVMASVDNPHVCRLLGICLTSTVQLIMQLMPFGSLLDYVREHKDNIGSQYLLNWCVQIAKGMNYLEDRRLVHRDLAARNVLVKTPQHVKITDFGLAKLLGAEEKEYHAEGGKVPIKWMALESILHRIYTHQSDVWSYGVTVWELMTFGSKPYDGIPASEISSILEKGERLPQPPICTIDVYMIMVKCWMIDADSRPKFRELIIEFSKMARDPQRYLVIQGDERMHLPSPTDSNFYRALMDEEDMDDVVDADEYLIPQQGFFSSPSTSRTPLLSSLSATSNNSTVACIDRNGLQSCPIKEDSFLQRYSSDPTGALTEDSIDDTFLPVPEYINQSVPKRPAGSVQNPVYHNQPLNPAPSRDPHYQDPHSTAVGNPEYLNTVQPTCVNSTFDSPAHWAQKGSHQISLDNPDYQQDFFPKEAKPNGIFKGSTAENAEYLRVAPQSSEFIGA
In short: as §1

[6] = biological target: T6, various mutants of kinase EGFR (BaF3 cell lines stably transfected with kinase) (Homo sapiens, UniProt P00533, T790M, form not given); details: BaF3 cell line stably transfected with EGFR Δ19Del/T790M, read-out: Δ19Del/ T790M growth inhibitory activity IC50
T6 construct: other: BaF3 cells stably transfected with EGFR Δ19Del/T790M; MTS, 48 h; other: BaF3 cell line stably transfected with EGFR Δ19Del/T790M; MTS, 48
T6 sequence (P00533 with tags, fused parts or gaps DEL746-750/T790M, form open): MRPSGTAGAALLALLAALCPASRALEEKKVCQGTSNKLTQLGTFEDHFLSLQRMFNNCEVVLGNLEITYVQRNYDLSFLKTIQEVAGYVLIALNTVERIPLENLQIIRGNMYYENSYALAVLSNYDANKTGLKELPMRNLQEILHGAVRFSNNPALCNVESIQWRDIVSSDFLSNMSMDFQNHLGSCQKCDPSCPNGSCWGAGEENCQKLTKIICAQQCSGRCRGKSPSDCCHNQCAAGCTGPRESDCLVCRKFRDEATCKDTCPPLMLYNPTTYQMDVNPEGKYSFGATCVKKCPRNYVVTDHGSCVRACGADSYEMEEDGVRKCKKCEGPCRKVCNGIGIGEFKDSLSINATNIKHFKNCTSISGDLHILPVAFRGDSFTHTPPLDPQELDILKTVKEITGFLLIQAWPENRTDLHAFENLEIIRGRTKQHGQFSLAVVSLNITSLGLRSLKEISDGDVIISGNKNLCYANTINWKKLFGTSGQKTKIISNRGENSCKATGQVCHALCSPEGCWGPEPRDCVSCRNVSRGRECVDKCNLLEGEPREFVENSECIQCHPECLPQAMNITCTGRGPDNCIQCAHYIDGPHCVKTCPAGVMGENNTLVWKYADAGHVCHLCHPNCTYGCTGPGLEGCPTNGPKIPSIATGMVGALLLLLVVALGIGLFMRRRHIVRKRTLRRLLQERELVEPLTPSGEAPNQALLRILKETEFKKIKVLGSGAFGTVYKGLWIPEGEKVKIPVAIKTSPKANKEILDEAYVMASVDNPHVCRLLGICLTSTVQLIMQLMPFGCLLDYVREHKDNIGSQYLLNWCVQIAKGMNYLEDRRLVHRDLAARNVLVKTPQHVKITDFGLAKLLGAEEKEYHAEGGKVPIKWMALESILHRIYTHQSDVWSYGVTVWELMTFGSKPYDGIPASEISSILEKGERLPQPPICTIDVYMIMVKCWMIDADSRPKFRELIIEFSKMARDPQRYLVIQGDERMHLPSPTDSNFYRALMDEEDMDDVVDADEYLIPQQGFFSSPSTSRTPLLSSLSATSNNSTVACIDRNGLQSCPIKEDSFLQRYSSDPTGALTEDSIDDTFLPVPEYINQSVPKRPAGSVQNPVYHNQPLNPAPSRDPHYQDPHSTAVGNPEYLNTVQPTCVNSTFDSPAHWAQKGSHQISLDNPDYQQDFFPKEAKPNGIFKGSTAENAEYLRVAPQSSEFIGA
In short: as §1

Compound	IC50 [1] [nM]	IC50 [2] [nM]	IC50 [3] [nM]	IC50 [4] [nM]	IC50 [5] [nM]	IC50 [6] [nM]
COc1cc(N2CCC(N3CCN(C)CC3)CC2)c(C)cc1Nc1nc(Nc2ccc3nccnc3c2N(C)S(C)(=O)=O)c2cc[nH]c2n1 [II-2-5]	50 to 500	≤ 50	50 to 500	≤ 50	≤ 50	≤ 50
CCc1cc(Nc2nc(Nc3ccc4nccnc4c3N(C)S(C)(=O)=O)c3cc[nH]c3n2)c(OC)nc1N1CCC(N2CCN(C)CC2)CC1 [II-2-7]	50 to 500	≤ 50	50 to 500	≤ 50	≤ 50	≤ 50
CCc1cc(Nc2nc(Nc3ccc4nccnc4c3N(C)S(C)(=O)=O)c3cc[nH]c3n2)c(OC(F)(F)F)cc1N1CCC(N2CCN(C)CC2)CC1 [II-2-8]	50 to 500	≤ 50	50 to 500	50 to 500	≤ 50	≤ 50
C=Cc1cc(Nc2nc(Nc3ccc4nccnc4c3N(C)S(C)(=O)=O)c3cc[nH]c3n2)c(OC(F)(F)F)cc1N1CCC(N2CCN(C)CC2)CC1 [II-2-9]	50 to 500	≤ 50	50 to 500	≤ 50	≤ 50	≤ 50
COc1cc(N2CCN(C)CC2)c(C)cc1Nc1nc(Nc2ccc3nccnc3c2N(C)S(C)(=O)=O)c2cc[nH]c2n1 [II-2-12]	50 to 500	≤ 50	50 to 500	≤ 50	≤ 50	≤ 50
CCc1cc(Nc2nc(Nc3ccc4nccnc4c3N(C)S(C)(=O)=O)c3cc[nH]c3n2)c(OC)cc1N1CCC(N(C)C)C1 (stereo not drawn) [II-2-17]	500 to 2500	50 to 500	500 to 2500	50 to 500	≤ 50	50 to 500
COc1cc(N2CCC(N3CCN(C)CC3)CC2)ccc1Nc1nc(Nc2ccc3nccnc3c2N(C)S(C)(=O)=O)c2cc[nH]c2n1 [II-2-22]	50 to 500	50 to 500	500 to 2500	≤ 50	≤ 50	50 to 500
COc1ccc(N2CCC(O)CC2)cc1Nc1nc(Nc2ccc3nccnc3c2N(C)S(C)(=O)=O)c2cc[nH]c2n1 [II-2-23]	50 to 500	≤ 50	50 to 500	50 to 500	≤ 50	50 to 500
